Some test systems named below: OVCAR-8 ovarian; SR leukemia; RPMI-8226 leukemia; HL-60(TB) leukemia; MDA-N; HT29 colon; LOX IMVI melanoma; SF-539 CNS; UACC-257 melanoma; A549 NSCLC; MALME-3M melanoma; RXF 393 renal; NCI-H522 lung; CAKI-1 renal; U251 CNS; MDA-MB-231 breast; M14 melanoma; NCI-H23 lung; MCF7 breast.
Holding throughout (experiment): NCI tumour cell line growth inhibition, 48 h

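96-well plates; 48 h exposure; 5 concentrations. Endpoints by linear interpolation between flanking doses. Not reached: highest tested concentration assigned. The concentration for full growth arrest is given as TGI.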 Where only a bound is given, the exact number is not on record here.

As for `O=c1cc(N=Nc2ccc(Cl)c(Cl)c2)[nH]c(=O)[nH]1`, the TGI in the assay on OVCAR-8 ovarian was 4.89 µM; with SR leukemia, 1.54 µM; in the assay with RPMI-8226 leukemia, 5.6 µM; with HL-60(TB) leukemia, 0.941 µM; in the assay with MDA-N, 3.36 µM; in the assay on HT29 colon, 3.13 µM. Moreover, the TGI is 3.36 µM in the assay on LOX IMVI melanoma; 8.04 µM with SF-539 CNS; 6.15 µM in the assay on UACC-257 melanoma; 42.3 µM in the assay on A549 NSCLC; 4.53 µM in the assay on MALME-3M melanoma; 3.17 µM with RXF 393 renal. In addition, the TGI amounted to 2.81 µM in the assay on NCI-H522 lung; 5.56 µM in the assay with CAKI-1 renal; 3.65 µM in the assay with U251 CNS; 3.38 µM in the assay on MDA-MB-231 breast; 4.08 µM with M14 melanoma; 10.7 µM with NCI-H23 lung. The compound also had a TGI in the assay on MCF7 breast of 3.99 µM.
Take `O=S1(=O)OCCOS(=O)(=O)C1Cc1cccc2ccccc12`: the TGI turned out to be 34.7 µM in the assay with OVCAR-8 ovarian; 64.9 µM with SR leukemia; 85.3 µM with RPMI-8226 leukemia; 29.9 µM in the assay on HL-60(TB) leukemia; 59.3 µM with MDA-N; 71.4 µM in the assay on HT29 colon. The TGI in the assay with LOX IMVI melanoma is 55.4 µM; in the assay with SF-539 CNS, 39.9 µM; in the assay on UACC-257 melanoma, 34.2 µM; in the assay with A549 NSCLC it was over 100 µM; in the assay with MALME-3M melanoma, 31.2 µM; in the assay on RXF 393 renal it was 12 µM. The TGI in the assay on NCI-H522 lung was 47.8 µM; with CAKI-1 renal it was over 100 µM; in the assay on U251 CNS, 40.7 µM; with MDA-MB-231 breast it was 46.6 µM; in the assay on M14 melanoma it was 54.9 µM; with NCI-H23 lung, 79.5 µM. This compound returned a TGI in the assay with MCF7 breast of 37.6 µM.
Consider `CCN(CCCl)c1cc(CN(C)C)cc(NC(=O)C23CCC(C(=O)Nc4cc(CN(C)C)cc(N(CC)CCCl)c4)(CC2)CC3)c1`, for which the TGI in the assay on OVCAR-8 ovarian was 3.16 µM; with SR leukemia it was 24.2 µM; in the assay on RPMI-8226 leukemia it was over 100 µM; in the assay with HL-60(TB) leukemia, over 100 µM; with MDA-N, 2.38 µM; in the assay with HT29 colon, 1.95 µM. In addition, the TGI in the assay on LOX IMVI melanoma worked out at 1.57 µM; in the assay on SF-539 CNS, 2.15 µM; in the assay with UACC-257 melanoma it was 15.5 µM; with A549 NSCLC, 5.14 µM; with MALME-3M melanoma it was 3.21 µM; in the assay on RXF 393 renal it was 3.18 µM. Moreover, the TGI in the assay on NCI-H522 lung worked out at 1.47 µM; with CAKI-1 renal, 23.2 µM; in the assay on U251 CNS, 11 µM; with MDA-MB-231 breast it was 26.6 µM; in the assay on M14 melanoma it was 14.8 µM; with NCI-H23 lung, 4.71 µM. The compound also showed a TGI in the assay on MCF7 breast of 2.01 µM.
In the case of `CCN(CC)c1ccc(/C=C/C(=O)c2cc(C(C)(C)C)c(O)c(C(C)(C)C)c2)cc1`, the TGI with OVCAR-8 ovarian is over 100 µM; with SR leukemia, over 24.5 µM; in the assay on RPMI-8226 leukemia, 38.8 µM; in the assay on HL-60(TB) leukemia, over 39.2 µM; in the assay with MDA-N, 13.5 µM; in the assay with HT29 colon, 9.52 µM. For the same compound, the TGI in the assay with LOX IMVI melanoma is over 100 µM; in the assay with SF-539 CNS, 10.5 µM; in the assay on UACC-257 melanoma, over 100 µM; with A549 NSCLC, over 100 µM; in the assay with MALME-3M melanoma, over 100 µM; with RXF 393 renal it was 39.1 µM. Further, the TGI in the assay on NCI-H522 lung was 10.2 µM; in the assay on CAKI-1 renal it was over 100 µM; in the assay with U251 CNS it was 11.9 µM; in the assay with MDA-MB-231 breast it was 48.1 µM; in the assay with M14 melanoma, over 93.9 µM; in the assay on NCI-H23 lung, over 100 µM. The TGI in the assay with MCF7 breast is over 100 µM.
In the case of `O=C1NC(N2CCCCC2)=N/C1=C\c1ccc(Cl)cc1`, the TGI with OVCAR-8 ovarian is 64.8 µM; in the assay with SR leukemia it was over 100 µM; with RPMI-8226 leukemia it was over 100 µM; with HL-60(TB) leukemia, over 100 µM; in the assay on MDA-N, over 100 µM; in the assay with HT29 colon, 35.7 µM. For the same compound, the TGI in the assay on LOX IMVI melanoma, in the assay with SF-539 CNS, in the assay on UACC-257 melanoma, in the assay on A549 NSCLC, in the assay on MALME-3M melanoma and in the assay on RXF 393 renal was over 100 µM each time. Besides, the TGI in the assay on NCI-H522 lung, with CAKI-1 renal, with U251 CNS, in the assay with MDA-MB-231 breast, in the assay with M14 melanoma and in the assay with NCI-H23 lung was over 100 µM each time. In the assay with MCF7 breast, the TGI is over 100 µM.
As for `C[N+](C)(C)CC(=O)N/N=C(\C(=O)NC1=C(Cl)C(=O)c2ccccc2C1=O)C(C#N)c1nc(-c2ccc([N+](=O)[O-])cc2)cs1` (configuration not stated), the TGI with OVCAR-8 ovarian was determined as 47.6 µM; in the assay with SR leukemia, 52.5 µM; in the assay with RPMI-8226 leukemia, 47 µM; with HL-60(TB) leukemia, 47.4 µM; in the assay with MDA-N, 3.2 µM; with HT29 colon, 33.6 µM. Further, the TGI in the assay with LOX IMVI melanoma was found to be 9.48 µM; with SF-539 CNS it was 22.3 µM; with UACC-257 melanoma, 9.11 µM; in the assay on A549 NSCLC, 19.4 µM; with MALME-3M melanoma it was 3.97 µM; with RXF 393 renal, 30.2 µM. Also, the TGI turned out to be 19.2 µM with NCI-H522 lung; 48.6 µM with CAKI-1 renal; 26.4 µM in the assay on U251 CNS; 39.3 µM in the assay on MDA-MB-231 breast; 8.65 µM in the assay with M14 melanoma; 11.4 µM in the assay with NCI-H23 lung. Also, the TGI in the assay on MCF7 breast was determined as 22.3 µM.
Regarding `Cc1ccnc2[nH]c(-c3ccc(F)cc3)cc(=O)c12`, the TGI in the assay with OVCAR-8 ovarian was over 100 µM; with SR leukemia, 25.9 µM; in the assay with RPMI-8226 leukemia, over 100 µM; in the assay on HL-60(TB) leukemia, 38.5 µM; in the assay on MDA-N, over 53.9 µM; in the assay on HT29 colon, over 100 µM. Besides, the TGI with LOX IMVI melanoma, in the assay on SF-539 CNS, with UACC-257 melanoma, in the assay with A549 NSCLC, with MALME-3M melanoma and in the assay with RXF 393 renal was over 100 µM in each case. The TGI is over 66.8 µM with NCI-H522 lung; over 100 µM with CAKI-1 renal; over 100 µM with U251 CNS; over 100 µM in the assay on MDA-MB-231 breast; over 46.4 µM in the assay with M14 melanoma; over 100 µM in the assay on NCI-H23 lung. The TGI in the assay with MCF7 breast is over 100 µM.
With `COC(=O)C(COC(=O)/C=C/c1ccc(OC(C)=O)c(OC(C)=O)c1)NC(=O)/C=C/c1ccc(OC(C)=O)c(OC(C)=O)c1` (configuration not stated), the TGI in the assay with OVCAR-8 ovarian is over 100 µM; in the assay on SR leukemia, over 100 µM; in the assay with RPMI-8226 leukemia it was over 100 µM; in the assay on HL-60(TB) leukemia, over 100 µM; with MDA-N, 71.7 µM; in the assay on HT29 colon it was 48 µM. Moreover, the TGI in the assay with LOX IMVI melanoma is 53.8 µM; with SF-539 CNS, over 100 µM; with UACC-257 melanoma, over 100 µM; with A549 NSCLC it was over 100 µM; in the assay on MALME-3M melanoma, 32 µM; with RXF 393 renal, over 100 µM. The TGI in the assay on NCI-H522 lung was 37.8 µM; in the assay with CAKI-1 renal, 59.4 µM; in the assay on U251 CNS, over 100 µM; in the assay on MDA-MB-231 breast, 40.1 µM; with M14 melanoma it was 39.5 µM; in the assay with NCI-H23 lung, 73.4 µM. In the assay with MCF7 breast, this compound gave a TGI of over 100 µM.
